In patent publication US20050123583A1, “Medical use of reuterin” (priority 2000, published 2005):

Assays:
[1] = test system: Escherichia coli (ATCC 25922), Pseudomonas aeruginosa (ATCC 27853), Staphylococcus aureus (ATCC 25923), and Bacillus subtillis (ATCC 6633); assay: Antimicrobial activity of reuterin, glutaraldehyde as control; type: cell-based
Source text: Antimicrobial activity of reuterin was studied (J Biomed Mater Res 2002;61:360-369) and disclosed in the present invention, wherein glutaraldehyde is used as a control. The microorganisms tested in the study are Escherichia coli (ATCC 25922), Pseudomonas aeruginosa (ATCC 27853), Staphylococcus aureus (ATCC 25923), and Bacillus subtillis (ATCC 6633).

[2] = test system: 3T3 fibroblasts (BALB/3T3 C1A31-1-1); assay: Cytotoxicity, light microscopic observation of cultured cells; type: cell-based; settings: 24 hours of culture
Method: (§1) The cytotoxicity of reuterin was also studied (J Biomed Mater Res 2002;61:360-369) and disclosed in the present invention, wherein glutaraldehyde is again used as a control. The cytotoxicity of the test reagents (glutaraldehyde vs. reuterin) was evaluated in vitro using a mouse-derived established cell line of 3T3 fibroblasts (BALB/3T3 C1A31-1-1). The assay (light microscopic observation and MTT assay) was used to measure the proportion of viable cells following a test reagent-treated culture.
In the assay, 3T3 fibroblasts were seeded in 24-well plates at 5×10^4 cells/well in 1 ml Dulbecco's modified eagle medium (DMEM, Gibco 430-2800EG, Grand Island, N.Y., USA) with 10% fetal calf serum (FCS, Hyclone Laboratories, Logan, Ut., USA). The cell culture was maintained in a humidified incubator at 37° C. with 10% CO2 in air. Cells in log phase of growth were then exposed to a new DMEM medium drugged with varying concentrations of glutaraldehyde or reuterin. After 24 hours of culture, the growth media in the wells were removed and the cells were photographed using light microscopy. Subsequently, the cells were washed with phosphate buffered saline (PBS) twice and surviving cell numbers were then determined indirectly by 3-(4,5-dimethylthiazol-yl)-2,5-diphenyltetrazolium bromide (MTT, Sigma Chemical Co., St. Louis, Mo., USA) dye reduction.

[3] = test system: 3T3 fibroblasts (BALB/3T3 C1A31-1-1); assay: Cytotoxicity, MTT assay; type: cell-based, mouse; settings: 24 hours of culture
Method: as §1
In the assay, 3T3 fibroblasts were seeded in 24-well plates at 5×10^4 cells/well in 1 ml Dulbecco's modified eagle medium (DMEM, Gibco 430-2800EG, Grand Island, N.Y., USA) with 10% fetal calf serum (FCS, Hyclone Laboratories, Logan, Ut., USA). […] Subsequently, the cells were washed with phosphate buffered saline (PBS) twice and surviving cell numbers were then determined indirectly by 3-(4,5-dimethylthiazol-yl)-2,5-diphenyltetrazolium bromide (MTT, Sigma Chemical Co., St. Louis, Mo., USA) dye reduction.
The MTT assay is based on the reduction of MTT, a yellow soluble dye by the mitochondrial succinate dehydrogenase to form an insoluble dark blue formazan product. […] Optical density readings were then performed using a multiwell scanning spectrophotometer (MRX Microplate Reader, Dynatech Laboratories Inc., Chantilly, Va., USA) at a wavelength of 570 nm. […]

SMILES | values for glutaraldehyde relative to those for reuterin ([1]; growth-preventing and lethal concentrations) | state of cultured cells in photomicrographs ([2]; 0.05 ppm) | state of cultured cells in photomicrographs ([2]; 5 ppm) | MTT50 concentration (concentration reducing optical density reading to half that of the control) [3] | concentration that can prevent the growth of the tested microorganisms ([1]; all four tested microorganisms) [ppm] | concentration that resulted in the death of the tested microorganisms ([1]; all four tested microorganisms) [ppm] | sensitivity of tested microorganisms ([1]; gram-positive and gram-negative bacteria) | state of cultured cells in photomicrographs ([2]; 15 ppm)
O=CCCCC=O [glutaraldehyde, reference compound] | 2˜3 times | confluent | all the cells cultured were found dead | approximately 4 ppm | – | – | – | –
O=CCCO [reuterin, β-hydroxypropinoaldehyde] | – | – | – | about 20 ppm | 20 to 35 | 40 to 50 | sensitive | confluent
